In ChEMBL document CHEMBL3885861, “Open TG-GATES”:

Species on record: Rattus norvegicus
Assay: Open TG-GATES - Regimen: Daily Repeat
Format: toxicity, organism-based, Sprague-Dawley
Design: regimen Daily Repeat, gender Male, age 6 weeks
Conditions: in vivo, po, 0 mg/kg, route gavage, dose level Control; for APTT / Bas / Eos / Fbg / Hb / Ht / Lym / MCHC / MCV / Mono / Neu / PT / Plat / RBC / Ret / WBC: tissue Blood; for KIDNEY_L / KIDNEY_R / KIDNEY_TOTAL: tissue Kidney; for LIVER: tissue Liver; for ALP / ALT / AST / CRE / DBIL / GLC / IP / K / LDH / Na / PL / RALB / TBIL / TC / TG / TP / gamma-GTP: tissue Plasma

O=C1NC(=O)C(c2ccccc2)(c2ccccc2)N1 [PHENYTOIN]
TERMINAL_BW (72 h, time 3 day): 217.7 g | APTT (72 h, time 3 day): 21.2 s | Bas (72 h, time 3 day): 0% | Eos (72 h, time 3 day): 0.8% | Fbg (72 h, time 3 day): 301.8 mg/dL | Hb (72 h, time 3 day): 13.3 g/dL | Ht (72 h, time 3 day): 39% | Lym (72 h, time 3 day): 81.2% | MCHC (72 h, time 3 day): 34.1% | MCV (72 h, time 3 day): 64.2 fL | Mono (72 h, time 3 day): 2.4% | Neu (72 h, time 3 day): 15.2% | PT (72 h, time 3 day): 16 s | Plat (72 h, time 3 day): 126.3 x10_4/uL | RBC (72 h, time 3 day): 608.6 x10_4/ul | Ret (72 h, time 3 day): 7.4% | WBC (72 h, time 3 day): 73.8 x10_2/uL | KIDNEY_L (72 h, time 3 day): 1 g | KIDNEY_R (72 h, time 3 day): 1 g | KIDNEY_TOTAL (72 h, time 3 day): 1.9 g | LIVER (72 h, time 3 day): 10.1 g | ALP (72 h, time 3 day): 1688.4 IU/L | ALT (72 h, time 3 day): 46.8 IU/L | AST (72 h, time 3 day): 71 IU/L | CRE (72 h, time 3 day): 0.1 mg/dL | DBIL (72 h, time 3 day): 0 mg/dL | GLC (72 h, time 3 day): 192.6 mg/dL | IP (72 h, time 3 day): 7.6 mg/dL | K (72 h, time 3 day): 4.1 meq/L | LDH (72 h, time 3 day): 178.6 IU/L | Na (72 h, time 3 day): 143 meq/L | PL (72 h, time 3 day): 141.6 mg/dL | RALB (72 h, time 3 day): 3.1 g/dL | TBIL (72 h, time 3 day): 0.018 mg/dL | TC (72 h, time 3 day): 73.4 mg/dL | TG (72 h, time 3 day): 84 mg/dL | TP (72 h, time 3 day): 5.7 g/dL | gamma-GTP (72 h, time 3 day): 1 IU/L | TERMINAL_BW ([…], time 7 day): 247 g | TERMINAL_BW ([…], time 14 day): 296.2 g | TERMINAL_BW ([…], time 28 day): 378.5 g | APTT ([…], time 7 day): 20.8 s | Bas ([…], time 7 day): 0% | Eos ([…], time 7 day): 0.4% | Fbg ([…], time 7 day): 300.4 mg/dL | Hb ([…], time 7 day): 13.4 g/dL | Ht ([…], time 7 day): 39.2% | Lym ([…], time 7 day): 82.2% | MCHC ([…], time 7 day): 34.2% | MCV ([…], time 7 day): 62.4 fL | Mono ([…], time 7 day): 2.4% | Neu ([…], time 7 day): 13.6% | PT ([…], time 7 day): 16 s | Plat ([…], time 7 day): 125.6 x10_4/uL | RBC ([…], time 7 day): 628 x10_4/ul | Ret ([…], time 7 day): 5.6% | WBC ([…], time 7 day): 113.7 x10_2/uL | APTT ([…], time 14 day): 21.7 s | Bas ([…], time 14 day): 0% | Eos ([…], time 14 day): 1% | Fbg ([…], time 14 day): 290.6 mg/dL | Hb ([…], time 14 day): 14.1 g/dL | Ht ([…], time 14 day): 40.9% | Lym ([…], time 14 day): 81.4% | MCHC ([…], time 14 day): 34.4% | MCV ([…], time 14 day): 59.2 fL | Mono ([…], time 14 day): 2.2% | Neu ([…], time 14 day): 14.8% | PT ([…], time 14 day): 16.5 s | Plat ([…], time 14 day): 124.2 x10_4/uL | RBC ([…], time 14 day): 690 x10_4/ul | Ret ([…], time 14 day): 4.6% | WBC ([…], time 14 day): 135.4 x10_2/uL | APTT ([…], time 28 day): 23.3 s | Bas ([…], time 28 day): 0% | Eos ([…], time 28 day): 1% | Fbg ([…], time 28 day): 307.4 mg/dL | Hb ([…], time 28 day): 15.3 g/dL | Ht ([…], time 28 day): 42.8% | Lym ([…], time 28 day): 83.4% | MCHC ([…], time 28 day): 35.7% | MCV ([…], time 28 day): 58.7 fL | Mono ([…], time 28 day): 1.6% | Neu ([…], time 28 day): 13.4% | PT ([…], time 28 day): 15.8 s | Plat ([…], time 28 day): 116.4 x10_4/uL | RBC ([…], time 28 day): 728.8 x10_4/ul | Ret ([…], time 28 day): 3.1% | WBC ([…], time 28 day): 147.1 x10_2/uL | KIDNEY_L ([…], time 7 day): 1 g | KIDNEY_R ([…], time 7 day): 1 g | KIDNEY_TOTAL ([…], time 7 day): 2.1 g | KIDNEY_L ([…], time 14 day): 1.2 g | KIDNEY_R ([…], time 14 day): 1.2 g | KIDNEY_TOTAL ([…], time 14 day): 2.4 g | KIDNEY_L ([…], time 28 day): 1.3 g | KIDNEY_R ([…], time 28 day): 1.3 g | KIDNEY_TOTAL ([…], time 28 day): 2.6 g | LIVER ([…], time 7 day): 11.2 g | LIVER ([…], time 14 day): 12.7 g | LIVER ([…], time 28 day): 15.6 g | ALP ([…], time 7 day): 1443 IU/L | ALT ([…], time 7 day): 34.8 IU/L | AST ([…], time 7 day): 65 IU/L | CRE ([…], time 7 day): 0.2 mg/dL | DBIL ([…], time 7 day): 0.004 mg/dL | GLC ([…], time 7 day): 197.2 mg/dL | IP ([…], time 7 day): 7.7 mg/dL | K ([…], time 7 day): 4.6 meq/L | LDH ([…], time 7 day): 197 IU/L | Na ([…], time 7 day): 141.6 meq/L | PL ([…], time 7 day): 140 mg/dL | RALB ([…], time 7 day): 2.9 g/dL | TBIL ([…], time 7 day): 0.024 mg/dL | TC ([…], time 7 day): 67.4 mg/dL | TG ([…], time 7 day): 131.4 mg/dL | TP ([…], time 7 day): 5.6 g/dL | gamma-GTP ([…], time 7 day): 0.8 IU/L | ALP ([…], time 14 day): 1493.2 IU/L | ALT ([…], time 14 day): 40 IU/L | AST ([…], time 14 day): 63 IU/L | CRE ([…], time 14 day): 0.2 mg/dL | DBIL ([…], time 14 day): 0 mg/dL | GLC ([…], time 14 day): 199.4 mg/dL | IP ([…], time 14 day): 7.2 mg/dL | K ([…], time 14 day): 4.3 meq/L | LDH ([…], time 14 day): 136.4 IU/L | Na ([…], time 14 day): 141.4 meq/L | PL ([…], time 14 day): 147.4 mg/dL | RALB ([…], time 14 day): 3 g/dL | TBIL ([…], time 14 day): 0.012 mg/dL | TC ([…], time 14 day): 68.4 mg/dL | TG ([…], time 14 day): 154 mg/dL | TP ([…], time 14 day): 5.6 g/dL | gamma-GTP ([…], time 14 day): 1.8 IU/L | ALP ([…], time 28 day): 1238 IU/L | ALT ([…], time 28 day): 38.8 IU/L | AST ([…], time 28 day): 61.8 IU/L | CRE ([…], time 28 day): 0.3 mg/dL | DBIL ([…], time 28 day): 0.004 mg/dL | GLC ([…], time 28 day): 189.6 mg/dL | IP ([…], time 28 day): 6.3 mg/dL | K ([…], time 28 day): 3.9 meq/L | LDH ([…], time 28 day): 151.4 IU/L | Na ([…], time 28 day): 142.4 meq/L | PL ([…], time 28 day): 139.6 mg/dL | RALB ([…], time 28 day): 3 g/dL | TBIL ([…], time 28 day): 0.022 mg/dL | TC ([…], time 28 day): 67.8 mg/dL | TG ([…], time 28 day): 143.4 mg/dL | TP ([…], time 28 day): 6.1 g/dL | gamma-GTP ([…], time 28 day): 1.2 IU/L
